# “Also recorded” adds a separate entry of the source.
# Key:
# Type in all cases: cell-based
# [1] = test system: BEAS-2B human lung epithelial cells; experiment: Stimulation of BEAS-2B human lung epithelial cells, cytokine expression; details: 20 ng/mL IL-1β, 48 h; for percent inhibition relative to Stimulated of Eotaxin expression: FIG. 12, FIG. 13
# Experimental: BEAS-2B cells were maintained in Bronchial Epithelial Cell Growth Basal Medium (BEBM) containing all the recommended supplements for the Bronchial Epithelial Cell Growth Medium (BEGM; Lonza #CC-4175) and allowed to attain approximately 70% confluency with media changed every 2-3 days at 37° C. with 5% (v/v) CO2. Tissue culture flasks/vessels were pre-coated with a mixture of 0.01 mg/mL fibronectin (Sigma), 0.03 mg/ml bovine collagen type I (Sigma) and 0.01 mg/mL bovine serum albumin dissolved in the BEBM. BEAS-2B cells were seeded with 0.5 ml of 1×10^6 cells/mL in BEGM per well on 24-well plates and incubated overnight at 37° C. with 5% (v/v) CO2. The cells are pre-treated with different concentrations of compounds (0, 1.0, 10, 100, 1000 μM) for 1 hour prior to stimulation. To stimulate the cells, 10 ng/mL of Interleukin-1 beta (IL-1β), 10 ng/mL of Lipopolysaccharides (LPS), or 20 ng/mL of IL-1$ is added to the wells without removing the media and incubated for 48 hours at 37° C. with 5% (v/v) CO2. Supernatants were collected and stored at −80° C. until quantitative detection assays are performed. Human Eotaxin, Monocyte Chemoattractant Protein-1 (MCP-1), Interleukin-6 (IL-6), Interleukin-25 (IL-25), Interleukin-33 (IL-33), Thymic stromal lymphopoietin (TSLP), and Granulocyte-Macrophage Colony-Stimulating Factor (GM-CSF) released from supernatants collected post stimulation were measured using Human Magnetic Luminex® Assay Kit. Human CCL5/RANTES was measured using an Enzyme-Linked Immunosorbent Assay (ELISA)-based analysis.
# [2] = test system: THP1 human macrophage cells; experiment: Stimulation of THP-1 cells, IL-6 at 6 or 36 hours post stimulation; details: THP1-derived macrophages, IFNγ + LPS, 0.1 to 500 μM, FIG. 9
# Experimental: Human immortalized monocytic THP-1 cells were maintained in phenol red free RPMI 1640 medium containing 10% (v/v) fetal bovine serum (FBS), 2 mM L-glutamine, penicillin (100 units/mL), streptomycin (100 μg/mL), amphotericin B (2.5 μg/mL), and 50 μM beta-mercaptoethanol (BME) at 37° C. with 5% (v/v) CO2. THP-1 cells were seeded in 1 mL of THP-1 medium (cell culture medium containing 10% (v/v) FBS, 2 mM L-glutamine, penicillin (100 units/mL), streptomycin (100 μg/mL), amphotericin B ([…]), and 50 μM BME)/well at a density of 1×10^6 cells/mL in six-well plates. Cells were differentiated by adding 10, 50, or 100 nM phorbol 12-myristate 13-acetate (PMA) to each well before incubating cells for 5.5 h at 37° C. with 5% (v/v) CO2. Without removing the media, different concentrations (either 0, 0.1, 1.0, 10, 100, 200, or 500 μM) of the compound were added to each well. Cells were stimulated, within 30 min by adding 20 ng/mL interferon gamma (IFNγ) and 100 ng/mL lipopolysaccharide (LPS) to each well. Following stimulation, the THP-1 cells were incubated for 6 or 36 hours at 37° C. with 5% (v/v) CO2. Supernatant was collected and stored at −80° C. until use.
# IL-6 released from supernatants collected at 6 or 36 hours post stimulation with IFNγ and LPS were measured using the AlphaLISA Human IL-6 detection kit.
# [3] = test system: EPC2 human esophageal keratinocytes; experiment: Stimulation of EPC2-hTERT human esophageal keratinocytes with Poly(I:C); details: 24 hours; for percent inhibition relative to Stimulated of IL-6 expression: FIG. 19B; for percent inhibition relative to Stimulated of MCP-1 expression: FIG. 19C; for percent inhibition relative to Stimulated of TSLP expression: FIG. 19A
# Experimental: EPC2-hTERT (EPC2) cells were maintained in supplemented keratinocyte serum-free medium (KSFM) with 0.09 mM calcium chloride containing epidermal growth factor (5 ng/mL), bovine pituitary extract ([…]), penicillin (100 units/mL), and streptomycin ([…]) (ThermoFisher #17005042) at 37° C. with 5% (v/v) CO2. EPC2 cells were seeded in 12-well plates at 0.55×10^6 cells per well in supplemented KSFM at 37° C. with 5% (v/v) CO2 and after 6 hours the old media is removed and changed with fresh media. After overnight incubation, the old media is changed to supplemented KSFM containing 1.8 mM calcium chloride and incubated for 72 hours at 37° C. with 5% (v/v) CO2. After the old media is removed and fresh supplemented KSFM containing 1.8 mM calcium chloride is added, the cells are pre-treated with different concentrations of compounds (0, 1, 10, 100, 500, 1000 μM) for 1 hour prior to stimulation. To stimulate the cells, Poly (I:C) (Tocris #4287) is added to the wells at […] concentration without removing the media and incubated for 24 hours at 37° C. with 5% (v/v) CO2. Supernatants are collected in Eppendorf tubes, centrifuged in a microfuge at maximum speed for 10 minutes at 4° C., and the centrifuged supernatants stored at −80° C. until quantitative detection assays are performed. Human Interleukin-6 (IL-6), Monocyte Chemoattractant Protein-1 (MCP-1), and Thymic stromal lymphopoietin (TSLP) released from supernatants collected post stimulation were measured using the AlphaLISA detection kit for human IL-6, MCP-1, and TSLP, respectively.
# human naïve T cells = experiment: Stimulation of blood derived naïve T cells with Der p1 (house dust mite) antigen; details: at 100 μM; human T cells, Der p1 antigen; FIG. 15
# Experimental: Naïve T cells from peripheral blood samples were collected and processed using MACSxpress® Whole Blood Pan T Cell Isolation Kit (Miltenyi Biotec), according to the manufacturer's protocol. Isolated naïve T cells were cultured in RPMI medium supplemented with 5% Fetal Bovine Serum (FBS) at 37° C. with 5% (v/v) CO2. T cells were seeded in 24 well plates at a density of 0.5×10^6 cells per well. The cells were pre-treated with the compounds (0, 0.1, 1.0, 10, 100 μM) for 1 hour prior to stimulation. Cells were stimulated with […] of Dermatophagoides pteronyssinus (Der p1) antigen. After 48 hours, fresh […] of Der p1 was added and continued incubating for a further 72 hours at 37° C. with 5% (v/v) CO2. Overall T cells were stimulated with […] of Der p1 antigen for 5 days before supernatants were collected and stored at −80° C. until quantitative detection assays are performed.
# Human Interleukin-4 (IL-4), Interleukin-5 (IL-5), Interleukin-6 (IL-6), Interleukin-8 (IL-8), Interleukin-13 ([…]), Interleukin-23 (IL-23), and Interferon gamma (IFNγ) released from supernatants collected post stimulation were measured using Human Magnetic Luminex® Assay Kit. Human Transforming Growth Factor beta (TGFβ) was measured using an Enzyme-Linked Immunosorbent Assay (ELISA)-based analysis.
smiles,measurement,setting,value
"C[C@H](CC/C=C/C(=O)OCc1ccncc1)O[C@@H]1O[C@@H](C)[C@H](O)C[C@H]1O [Compound 6, pyridin-4-ylmethyl (2E,6R)-6-{[(2R,3R,5R,6S)-3,5-dihydroxy-6-methyloxan-2-yl]oxy}hept-2-enoate]",percent inhibition relative to Stimulated of IL-33 expression,[1]; FIG. 12,statistically significant inhibition
same,percent inhibition relative to Stimulated of TSLP expression,[1]; FIG. 12,statistically significant inhibition
same,percent inhibition relative to Stimulated of Eotaxin expression,[1],statistically significant inhibition
same,percent inhibition relative to Stimulated of IL-25 expression,"[1]; compound concentration series, FIG. 12",robust inhibition of IL-25 expression at 1 mM concentration
same,"percent inhibition relative to Stimulated of IL-25 expression, level at which it topped out","[1]; even at 100 μM, FIG. 12",60%
same,percent inhibition relative to Control of IL-6 levels secreted,[2],"inhibited IL-6 expression in statistically significant, dose-dependent manner"
"C[C@H](CC/C=C/C(=O)OCc1cccnc1)O[C@@H]1O[C@@H](C)[C@H](O)C[C@H]1O [Compound 5, pyridin-3-ylmethyl (2E,6R)-6-{[(2R,3R,5R,6S)-3,5-dihydroxy-6-methyloxan-2-yl]oxy}hept-2-enoate]",percent inhibition relative to Control of IL-6 levels secreted,[2],"inhibited IL-6 expression in statistically significant, dose-dependent manner"
"C[C@H](CCC(O)CC(=O)OC(C)(C)C)O[C@@H]1O[C@@H](C)[C@H](O)C[C@H]1O (stereo partly drawn) [Compound 9, tert-butyl (6R)-6-(((2R,3R,5R,6S)-3,5-dihydroxy-6-methyltetrahydro-2H-pyran-2-yl)oxy)-3-hydroxyheptanoate]",percent inhibition relative to Control of IL-6 levels secreted,[2],"inhibited IL-6 expression in statistically significant, dose-dependent manner"
"CC(C)OC(=O)/C=C/CC[C@@H](C)O[C@@H]1O[C@@H](C)[C@H](O)C[C@H]1O [Compound 8, isopropyl (R,E)-6-(((2R,3R,5R,6S)-3,5-dihydroxy-6-methyltetrahydro-2H-pyran-2-yl)oxy)hept-2-enoate]",percent inhibition relative to Control of IL-6 levels secreted,[2],"inhibited IL-6 expression in statistically significant, dose-dependent manner"
"C[C@H](CCC1CC1C(=O)OC(C)(C)C)O[C@@H]1O[C@@H](C)[C@H](O)C[C@H]1O (stereo partly drawn) [Compound 2, tert-butyl 2-[(3R)-3-{[(2R,3R,5R,6S)-3,5-dihydroxy-6-methyloxan-2-yl]oxy}butyl]cyclopropane-1-carboxylate]",percent inhibition relative to Stimulated of Eotaxin expression,[1],"statistically significant, complete inhibition"
same,percent inhibition relative to Control of IL-6 levels secreted,[2],"inhibited IL-6 expression in statistically significant, dose-dependent manner"
same,percent inhibition relative to Stimulated of IL-6 expression,[3]; increasing concentrations,inhibited IL6 expression in statistically significant manner
same,percent inhibition relative to Stimulated of MCP-1 expression,[3]; increasing concentrations,inhibited MCP-1 expression in statistically significant manner; also recorded: only showed inhibition at the highest 100 μM concentration
same,percent inhibition relative to Stimulated of IL-6 expression,[3]; at 100 μM,robust inhibition
"C[C@H](CC/C=C/C(=O)OCc1ccccc1)O[C@@H]1O[C@@H](C)[C@H](O)C[C@H]1O [Compound 4, benzyl (2E,6R)-6-{[(2R,3R,5R,6S)-3,5-dihydroxy-6-methyloxan-2-yl]oxy}hept-2-enoate]",percent inhibition relative to Stimulated of IL-6 expression,human naïve T cells,statistically significant inhibition
same,percent inhibition relative to Stimulated of IL-8 expression,human naïve T cells,statistically significant inhibition
same,percent inhibition relative to Stimulated of TNFα expression,human naïve T cells,statistically significant inhibition
same,percent inhibition relative to Stimulated of TSLP expression,[3]; increasing concentrations,statistically significant inhibition; also recorded: completely inhibited
same,percent inhibition relative to Stimulated of IL-6 expression,[3]; increasing concentrations,"inhibited IL-6 expression in statistically significant, dose-dependent manner"
same,percent inhibition relative to Stimulated of MCP-1 expression,[3]; increasing concentrations,inhibited MCP-1 expression in statistically significant manner; also recorded: only showed inhibition at the highest 100 μM concentration
"C[C@@H]1O[C@@H](OCCC/C=C/C(=O)OC(C)(C)C)[C@H](O)C[C@H]1O [Compound 11, tert-butyl (E)-6-(((2R,3R,5R)-3,5-dihydroxy-6-methyltetrahydro-2H-pyran-2-yl)oxy)hex-2-enoate]",percent inhibition relative to Control of IL-6 levels secreted,[2],"inhibited IL-6 expression in statistically significant, dose-dependent manner"
same,percent inhibition relative to Stimulated of MCP-1 expression,[3]; increasing concentrations,"inhibited MCP-1 expression in statistically significant, dose-dependent manner"
"C[C@H](CC/C=C/C(=O)N1CCCC1)O[C@@H]1O[C@@H](C)[C@H](O)C[C@H]1O [Compound 13, (R,E)-6-(((2R,3R,5R,6S)-3,5-dihydroxy-6-methyltetrahydro-2H-pyran-2-yl)oxy)-1-(pyrrolidin-1-yl)hept-2-en-1-one]",percent inhibition relative to Control of IL-6 levels secreted,[2],"inhibited IL-6 expression in statistically significant, dose-dependent manner"
same,percent inhibition relative to Stimulated of TSLP expression,[3]; increasing concentrations,inhibited TSLP expression in statistically significant manner; also recorded: robust blocking
same,percent inhibition relative to Stimulated of MCP-1 expression,[3]; increasing concentrations,inhibited MCP-1 expression in statistically significant manner
same,percent inhibition relative to Stimulated of MCP-1 expression,"[3]; increasing concentrations, listed as compound 13",robust blocking of MCP-1 expression starting at 1 mM

# Source: patent US11845770B2, “Ascaroside derivatives and methods of use” (California Institute of Technology, priority 2019, dated 2023)
